According to patent US20240376094A2, “SELECTIVE BCL-XL PROTAC COMPOUNDS AND METHODS OF USE” (Les Laboratoires Servier, priority 2021, published 2024):

Columns and labels:
Format in all cases: cell-based
NCI-H1650 = assay: CellTiter-Glo 3D proliferation assay, NCI-H1650 spheroids; settings: Homo sapiens, NCI-H1650, 120 h, 5 days; for Emax: read-out: NCI-H1650 Span (Amax)
How it was run: (§1)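 Both lines grown in RPMI-1640 + 10% FBS. COR-L105 plated flat at 1,000 cells/well overnight; NCI-H1650 grown as spheroids, 3,000 cells/well, 72 h. Compounds at 0.508 nM-10 μM final for 5 days, 37° C. ATP read by CellTiter-Glo (3D version for spheroids); IC50 from variable-slope fit normalized to untreated cells.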

endogenous BCL-xL = target: T1, endogenous BCL-xL (Homo sapiens, UniProt Q07817); assay: Degradation of endogenous BCL-xL in COR-L105 (ProteinSimple Jess); settings: COR-L105, 24 h, COR-L105, dose 300 nM, read-out: % BCL-xL vs. Untreated, COR-L105
T1 construct: endogenous in cells; host or cells: COR-L105 (ECACC No. 92031918); NCI-H1650 (ATCC No. CRL-5883)
How it was run: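 COR-L105 cells (2,000,000/well) treated 24 h at 37 °C with compound at 100–300 nM final, singlet, alongside untreated cells. RIPA lysates normalized by BCA to 1.5 mg/mL, then BCL-xL detected by capillary immunoassay (2–40 kDa Jess) comparing treated with untreated lysates.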

COR-L105 = assay: CellTiter-Glo proliferation assay, COR-L105; settings: Homo sapiens, COR-L105, 120 h, COR-L105, 5 days; for Emax: read-out: COR-L105 Span (max)
How it was run: as §1

T1 sequence (Q07817 whole entry): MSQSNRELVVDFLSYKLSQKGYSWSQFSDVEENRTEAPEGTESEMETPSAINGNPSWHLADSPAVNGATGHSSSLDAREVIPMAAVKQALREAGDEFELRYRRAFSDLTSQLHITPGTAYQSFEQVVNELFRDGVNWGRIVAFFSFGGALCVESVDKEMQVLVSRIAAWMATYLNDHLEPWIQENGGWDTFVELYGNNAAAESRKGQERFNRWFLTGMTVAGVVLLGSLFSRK

In the case of `Cc1ncsc1-c1ccc(CNC(=O)[C@@H]2C[C@@H](O)CN2C(=O)[C@@H](NC(=O)C2(F)CC2)C(C)(C)C)c(OCC(=O)NCCCCCN2CCN(CC#Cc3ccc(OCCCc4sc(N5CCCc6c5nnc(Nc5nc7ccccc7s5)c6C)nc4C(=O)O)c(F)c3)CC2)c1` [Example 53, 2-(3-(benzo[d]thiazol-2-ylamino)-4-methyl-6,7-dihydropyrido [2,3-c]pyridazin-8(5H)-yl)-5-(3-(2-fluoro-4-(3-(4-(5-(2-(2-(((2S,4R)-1-((S)-2-(1-fluorocyclopropane-1-carboxamido)-3,3-dimethylbutanoyl)-4-hydroxypyrrolidine-2-carboxamido)methyl)-5-(4-methylthiazol-5-yl)phenoxy)acetamido)pentyl)piperazin-1-yl)prop-1-yn-1-yl)phenoxy)propyl)thiazole-4-carboxylic acid], the IC50 (NCI-H1650) is reported as 4.46 nM, the Emax (NCI-H1650) is reported as 79.3% and the remaining activity at 0.3 µM (endogenous BCL-xL) is reported as 48.3%. For the same molecule, the IC50 (COR-L105) was 33.4 nM and the Emax (COR-L105) was 97.9%.

For `Cc1ncsc1-c1ccc([C@H](C)NC(=O)[C@@H]2C[C@@H](O)CN2C(=O)[C@@H](NC(=O)c2ccc(C(=O)N3CCN(CC#Cc4ccc(OCCCc5sc(N6CCCc7c6nnc(Nc6nc8ccccc8s6)c7C)nc5C(=O)O)c(F)c4)CC3)cc2F)C(C)(C)C)cc1` [Example 43, 2-(3-(benzo[d]thiazol-2-ylamino)-4-methyl-6,7-dihydropyrido [2,3-c]pyridazin-8(5H)-yl)-5-(3-(2-fluoro-4-(3-(4-(3-fluoro-4-(((S)-1-((2S,4R)-4-hydroxy-2-(((S)-1-(4-(4-methylthiazol-5-yl)phenyl)ethyl)carbamoyl)pyrrolidin-1-yl)-3,3-dimethyl-1-oxobutan-2-yl)carbamoyl)benzoyl)piperazin-1-yl)prop-1-yn-1-yl)phenoxy)propyl)thiazole-4-carboxylic acid], the IC50 (NCI-H1650) was 4.22 nM, the Emax (NCI-H1650) was 80.3% and the remaining activity at 0.3 µM (endogenous BCL-xL) was 19.9%. For the same molecule, the IC50 (COR-L105) was 74.8 nM and the Emax (COR-L105) was 85.9%.
